In this experiment the target is T1, Signal transducer and activator of transcription 3 [127-722] (Mus musculus, UniProt P42227).
T1 construct: 127-722
The experiment in a line: Fluorescence-Polarization-Based Binding Assay. The conditions noted are these: pH 7.5; 22 °C. From the text: Fluorescence polarization (FP) binding assay is utilizing the intrinsic property of the fluorescent probe, which will have low polarization value when free in solution. On binding to a target, the polarization of the probe will increase.

In general, Ki refers to the equilibrium dissociation constant of an inhibitor or competing ligand from its target. Low readings indicate a stronger hold on the target, high ones a looser hold on the target.

Where a SMILES comes first, the peptide text is derived from it. Bridges are numbered along the chain shown (N, C = ends). Triazole bridges read from a SMILES are 1,4-linked. [ ]: non-standard residue; d: D form. ξ: configuration not given here. pY = N[C@@H](Cc1ccc(OP(=O)(O)O)cc1)C(=O)O; Lys(N3) = [N-]=[N+]=NCCCC[C@H](N)C(=O)O; Thr(3ξ) = CC(O)[C@H](N)C(=O)O; Pra = C#CC[C@H](N)C(=O)O

T1 sequence (P42227 127-722): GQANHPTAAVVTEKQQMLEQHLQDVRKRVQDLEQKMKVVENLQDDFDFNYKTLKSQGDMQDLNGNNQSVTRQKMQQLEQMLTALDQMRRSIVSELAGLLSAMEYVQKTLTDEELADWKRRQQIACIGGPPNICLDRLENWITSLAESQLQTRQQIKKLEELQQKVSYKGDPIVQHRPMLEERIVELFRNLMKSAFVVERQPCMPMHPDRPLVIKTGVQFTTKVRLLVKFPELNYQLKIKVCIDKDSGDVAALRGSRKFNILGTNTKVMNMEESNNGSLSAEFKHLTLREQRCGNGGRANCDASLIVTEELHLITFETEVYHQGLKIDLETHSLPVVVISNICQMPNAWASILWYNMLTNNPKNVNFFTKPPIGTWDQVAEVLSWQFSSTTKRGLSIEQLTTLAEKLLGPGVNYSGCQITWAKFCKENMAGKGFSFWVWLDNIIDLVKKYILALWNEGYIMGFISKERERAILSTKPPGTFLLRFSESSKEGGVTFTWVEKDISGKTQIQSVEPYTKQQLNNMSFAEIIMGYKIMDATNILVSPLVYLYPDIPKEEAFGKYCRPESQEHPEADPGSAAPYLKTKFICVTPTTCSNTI

`CC(=O)N[C@@H](Cc1ccc(OP(=O)(O)O)cc1)C(=O)N[C@@H](CC(C)C)C(=O)N[C@H]1CCCCn2cc(nn2)C[C@@H](C(=O)N[C@@H](Cc2ccccc2)C(N)=O)NC(=O)[C@H](C(C)O)NC1=O` (stereo partly drawn) [4-[(2S)-2-{[(1S)-1-{[(6S,9S,12S)-12-{[(1S)-1-carbamoyl-2-phenylethyl]carbamoyl}-9-[(1R)-1-hydroxyethyl]-7,10-dioxo-1,8,11,15,16-pentaazabicyclo[12.2.1]heptadeca-14(17),15-dien-6-yl]carbamoyl}-3-methylbutyl]carbamoyl}-2-acetamidoethyl]phenoxyphosphonic acid] (Ac-[pY]L[Lys(N3)][Thr(3ξ)][Pra]F-NH2; triazole 3-5) gave an inhibition constant Ki of 7.3 µM.

Regarding `CC(=O)N[C@@H](Cc1ccc(OP(=O)(O)O)cc1)C(=O)N[C@@H](CC(C)C)C(=O)N[C@@H](CCCCN)C(=O)N[C@H](C(=O)N[C@@H](CCCCN)C(=O)N[C@@H](Cc1ccccc1)C(N)=O)C(C)O` (stereo partly drawn) [4-[(2S)-2-{[(1S)-1-{[(1S)-5-amino-1-{[(1S,2R)-1-{[(1S)-5-amino-1-{[(1S)-1-carbamoyl-2-phenylethyl]carbamoyl}pentyl]carbamoyl}-2-hydroxypropyl]carbamoyl}pentyl]carbamoyl}-3-methylbutyl]carbamoyl}-2-acetamidoethyl]phenoxyphosphonic acid] (HELM PEPTIDE1{[ac].[O=C([C@H](Cc1ccc(OP(=O)(O)O)cc1)N[*:1])[*:2]].L.K.[CC(O)[C@H](N[*:1])C(=O)[*:2]].K.F.[am]}$$$$V2.0), the Ki worked out at 25.9 µM.

(Values after BindingDB's records for doi:10.1016/j.bmcl.2007.04.096 (University of Michigan, 2007).)
